Reference: patent US20090099231A1, “3-Sulfonylamino-Pyrrolidine-2-One Derivatives as Factor Xa Inhibitors” (priority 2005, published 2009)
Where a name gives a salt, the structure may show the parent alone.

Assays:
human Factor Xa = human Factor Xa (Homo sapiens, UniProt P00742); test: In vitro assay for inhibition of Factor Xa (fluorogenic assay, Rhodamine 110 bis-Cbz-glycylglycyl-L-arginine amide substrate); format: biochemical; conditions: for Ki: Ki=IC50/(1+[Substrate]/Km), i.e. IC50 divided by 1.6, human Factor Xa fluorogenic assay; for Factor Xa inhibitory activity: human Factor Xa 0.0003 U.ml-1, substrate 10 μM, 15 min preincubation, room temperature, pH 7.4
Chain of human Factor Xa (P00742 235-488 limits assumed): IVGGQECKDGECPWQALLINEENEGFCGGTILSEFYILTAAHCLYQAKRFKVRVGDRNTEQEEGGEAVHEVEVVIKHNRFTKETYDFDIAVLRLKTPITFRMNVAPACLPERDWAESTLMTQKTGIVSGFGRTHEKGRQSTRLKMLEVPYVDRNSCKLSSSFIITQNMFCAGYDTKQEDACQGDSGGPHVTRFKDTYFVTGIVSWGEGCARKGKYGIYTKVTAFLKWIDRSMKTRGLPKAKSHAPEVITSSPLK
Chain of human Factor Xa (P00742 41-179 partner limits assumed): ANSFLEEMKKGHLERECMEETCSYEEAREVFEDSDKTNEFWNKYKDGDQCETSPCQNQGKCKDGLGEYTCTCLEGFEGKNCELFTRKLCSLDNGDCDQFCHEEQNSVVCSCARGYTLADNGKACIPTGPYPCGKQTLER
Procedure: Compounds of the present invention were tested for their Factor Xa inhibitory activity as determined in vitro by their ability to inhibit human Factor Xa in a fluorogenic assay, using Rhodamine 110, bis-Cbz-glycylglycyl-L-arginine amide as the fluorogenic substrate. Compounds were diluted from a 10 mM stock solution in dimethylsulfoxide at appropriate concentrations. Assay was performed at room temperature using buffer consisting of: 50 mM Tris-HCl, 150 mM NaCl, 5 mM CaCl2, pH 7.4 containing human Factor Xa (final concentration of 0.0003 U.ml-1). Compound and enzyme were preincubated for 15 min prior to addition of the substrate (final concentration of 10 μM). The reaction was stopped after 3 hrs with the addition of H-D-Phe-Pro-Arg-Chloromethylketone. An LJL-Analyst fluorimeter was used to monitor fluorescence with 485 nm excitation/535 nm emission. To obtain IC50 values the data were analysed using ActivityBase® and XLfit®.
Ki=IC50/(1+[Substrate]/Km)
The Ki value for the above assay can be obtained by dividing the IC50 value by 1.6.

human plasma = test: Measurement of Prothrombin Time (PT), time to clot formation in plasma; conditions: pooled plasma from 4 donors, test compound 0.03 to 100 uM, Thromboplastin C Plus
Procedure: Blood was collected into a sodium citrate solution (ratio 9:1) to give a final concentration of 0.38% citrate. Plasma was generated by centrifugation of citrated blood samples at 1200×g for 20 min at 4° C. and stored at −20° C. until use.
The PT test was performed using the BCS Coagulation Analyzer (Dade Behring). For assay, 50 ul of plasma containing test compound at concentrations ranging from 0.03 to 100 uM (made from a 100 uM stock containing 1% DMSO in plasma) was combined with 100 ul of Thromboplastin C Plus (Dade Behring). Upon addition of the reagents, absorbance at 405 nm was monitored and time to clot formation is determined (normal range for human plasma is 10.6-12.4 seconds).

| Ki (human Factor Xa) [nM] | Factor Xa inhibitory activity (human Factor Xa) | SMILES | activity in prothrombin time (PT) test (human plasma) |
| --- | --- | --- | --- |
| < 10 | exhibit Factor Xa inhibitory activity | Cl.O=C1[C@@H](NS(=O)(=O)c2cc3ccc(Cl)cc3s2)CCN1c1cc2c(cc1F)CNCC2 [Example 21, 6-Chloro-N-[(3S)-1-(7-fluoro-1,2,3,4-tetrahydro-6-isoquinolinyl)-2-oxo-3-pyrrolidinyl]-1-benzothiophene-2-sulfonamide hydrochloride] | exhibit activity |
|  | exhibit Factor Xa inhibitory activity | Cl.O=C1[C@@H](NS(=O)(=O)c2ccc3c(Cl)c[nH]c3c2)CCN1c1cc2c(cc1F)CNCC2 [Example 23, 3-Chloro-N-[(3S)-1-(7-fluoro-1,2,3,4-tetrahydro-6-isoquinolinyl)-2-oxo-3-pyrrolidinyl]-1H-indole-6-sulfonamide hydrochloride] | exhibit activity |
|  | exhibit Factor Xa inhibitory activity | Cl.O=C1[C@@H](NS(=O)(=O)c2ccc3cc(Cl)ccc3c2)CCN1c1cc2c(cc1Cl)CNCC2 [Example 24, 6-Chloro-N-[(3S)-1-(7-chloro-1,2,3,4-tetrahydro-6-isoquinolinyl)-2-oxo-3-pyrrolidinyl]-2-naphthalenesulfonamide hydrochloride] | exhibit activity |
|  | exhibit Factor Xa inhibitory activity | Cl.O=C1[C@@H](NS(=O)(=O)/C=C/c2ccc(Cl)s2)CCN1c1cc2c(cc1Cl)CNCC2 [Example 25, (E)-N-[(3S)-1-(7-Chloro-1,2,3,4-tetrahydro-6-isoquinolinyl)-2-oxo-3-pyrrolidinyl]-2-(5-chloro-2-thienyl)ethenesulfonamide hydrochloride] | exhibit activity |
| < 10 | exhibit Factor Xa inhibitory activity | Cl.O=C1[C@@H](NS(=O)(=O)c2ccc3c(Cl)c[nH]c3c2)CCN1c1cc2c(cc1Cl)CNCC2 [Example 26, 3-Chloro-N-[(3S)-1-(7-chloro-1,2,3,4-tetrahydro-6-isoquinolinyl)-2-oxo-3-pyrrolidinyl]-1H-indole-6-sulfonamide hydrochloride] | exhibit activity |
|  | exhibit Factor Xa inhibitory activity | Cc1cc2c(cc1N1CC[C@H](NS(=O)(=O)c3ccc4cc(Cl)ccc4c3)C1=O)CCNC2.Cl [Example 27, 6-Chloro-N-[(3S)-1-(7-methyl-1,2,3,4-tetrahydro-6-isoquinolinyl)-2-oxo-3-pyrrolidinyl]-2-naphthalenesulfonamide hydrochloride] | exhibit activity |

Further lines, the compound ahead of its results:

| SMILES | Ki (human Factor Xa) [nM] | Factor Xa inhibitory activity (human Factor Xa) | activity in prothrombin time (PT) test (human plasma) |
| --- | --- | --- | --- |
| Cl.O=C1[C@@H](NS(=O)(=O)/C=C/c2ccc(Cl)s2)CCN1c1cc2c(cc1F)CNCC2 [Example 22, (E)-2-(5-Chloro-2-thienyl)-N-[(3S)-1-(7-fluoro-1,2,3,4-tetrahydro-6-isoquinolinyl)-2-oxo-3-pyrrolidinyl]ethenesulfonamide hydrochloride] |  | exhibit Factor Xa inhibitory activity | exhibit activity |
| Cc1cc2c(cc1N1CC[C@H](NS(=O)(=O)/C=C/c3ccc(Cl)s3)C1=O)CCNC2.Cl [Example 28, (E)-2-(5-Chloro-2-thienyl)-N-[(3S)-1-(7-methyl-1,2,3,4-tetrahydro-6-isoquinolinyl)-2-oxo-3-pyrrolidinyl]ethenesulfonamide hydrochloride] |  | exhibit Factor Xa inhibitory activity | exhibit activity |
| Cc1cc2c(cc1N1CC[C@H](NS(=O)(=O)c3ccc4c(Cl)c[nH]c4c3)C1=O)CCNC2.Cl [Example 29, 3-Chloro-N-[(3S)-1-(7-methyl-1,2,3,4-tetrahydro-6-isoquinolinyl)-2-oxo-3-pyrrolidinyl]-1H-indole-6-sulfonamide hydrochloride] |  | exhibit Factor Xa inhibitory activity | exhibit activity |
| CC(C)N1CCc2cc(N3CC[C@H](NS(=O)(=O)c4ccc5cc(Cl)ccc5c4)C3=O)ccc2C1 [Example 30, 6-Chloro-N-{(3S)-1-[2-(1-methylethyl)-1,2,3,4-tetrahydro-6-isoquinolinyl]-2-oxo-3-pyrrolidinyl}-2-naphthalenesulfonamide] | < 10 | exhibit Factor Xa inhibitory activity | exhibit activity |
| CC1NCCc2cc(N3CC[C@H](NS(=O)(=O)c4ccc5cc(Cl)ccc5c4)C3=O)ccc21 (stereo partly drawn) [Example 31, 6-Chloro-N-[(3S)-1-(1-methyl-1,2,3,4-tetrahydro-6-isoquinolinyl)-2-oxo-3-pyrrolidinyl]-2-naphthalenesulfonamide hydrochloride] | < 10 | exhibit Factor Xa inhibitory activity | exhibit activity |
| CC1NCCc2cc(N3CC[C@H](NS(=O)(=O)/C=C/c4ccc(Cl)s4)C3=O)ccc21 (stereo partly drawn) [Example 32, (E)-2-(5-Chloro-2-thienyl)-N-[(3S)-1-(1-methyl-1,2,3,4-tetrahydro-6-isoquinolinyl)-2-oxo-3-pyrrolidinyl]ethenesulfonamide hydrochloride] | < 10 | exhibit Factor Xa inhibitory activity | exhibit activity |
| CC1Cc2cc(N3CC[C@H](NS(=O)(=O)/C=C/c4ccc(Cl)s4)C3=O)ccc2CN1 (stereo partly drawn) [Example 33, (E)-2-(5-Chloro-2-thienyl)-N-[(3S)-1-(3-methyl-1,2,3,4-tetrahydro-6-isoquinolinyl)-2-oxo-3-pyrrolidinyl]ethenesulfonamide hydrochloride] | < 10 | exhibit Factor Xa inhibitory activity | exhibit activity |
| O=C1[C@@H](NS(=O)(=O)c2cc3cc(Cl)ccc3[nH]2)CCN1c1ccc2c(c1)CCNC2.O=CO [Example 36, 5-Chloro-N-[(3S)-2-oxo-1-(1,2,3,4-tetrahydro-6-isoquinolinyl)-3-pyrrolidinyl]-1H-indole-2-sulfonamide] | < 10 | exhibit Factor Xa inhibitory activity | exhibit activity |
| CN1CCc2cc(N3CC[C@H](NS(=O)(=O)/C=C/c4ccc(Cl)cc4)C3=O)ccc2C1.O=CO [Example 37, (E)-2-(4-Chlorophenyl)-N-[(3S)-1-(2-methyl-1,2,3,4-tetrahydro-6-isoquinolinyl)-2-oxo-3-pyrrolidinyl]ethenesulfonamide formate] |  | exhibit Factor Xa inhibitory activity | exhibit activity |
| CC1Cc2cc(N3CC[C@H](NS(=O)(=O)c4ccc5cc(Cl)ccc5c4)C3=O)ccc2CN1.O=CO (stereo partly drawn) [Example 38, 6-Chloro-N-[(3S)-1-(3-methyl-1,2,3,4-tetrahydro-6-isoquinolinyl)-2-oxo-3-pyrrolidinyl]-2-naphthalenesulfonamide formate] |  | exhibit Factor Xa inhibitory activity | exhibit activity |
